Laboratory results as given in patent publication US11273200B2, “Immunotherapy against several tumors including gastrointestinal and gastric cancer” (Immatics Biotechnologies GmbH, priority 2010, dated 2022).

Columns and labels:
CD8+ T cells [1] = assay: In vitro immunogenicity of HLA-A*2402 restricted TUMAPs: priming of CD8+ T cells with pMHC/anti-CD28 coated beads (aAPC), multimer staining; format: cell-based, human; details: HLA-A*2402 peptides, healthy donors, three stimulation cycles; for Wells positive/evaluable [%]: at least 48 wells evaluable; for Donors positive/evaluable [%]: at least four donors evaluable
Text: (§1) In order to perform in vitro stimulations by artificial antigen presenting cells (aAPC) loaded with peptide-MHC complex (pMHC) and anti-CD28 antibody, we first isolated CD8 T cells from fresh HLA-A*24 leukapheresis products or from HLA-A*2 buffy coats of healthy donors obtained from the Blood Bank Tuebingen.
(§2) CD8 T cells were either directly enriched or PBMCs (peripheral blood mononuclear cells) were isolated first by using standard gradient separation medium (PAA, Colbe, Germany). Isolated CD8 lymphocytes or PBMCs were incubated until use in T-cell medium (TCM) consisting of RPMI-Glutamax (Invitrogen, Karlsruhe, Germany) supplemented with 10% heat inactivated human AB serum (PAN-Biotech, Aidenbach, Germany), 100 U/ml Penicillin/100 μg/ml Streptomycin (Cambrex, Cologne, Germany), 1 mM sodium pyruvate (CC Pro, Oberdorla, Germany), 20 μg/ml Gentamycin (Cambrex). […] Isolation of CD8+ lymphocytes was performed by positive selection using CD8 MicroBeads (Miltenyi Biotec, Bergisch-Gladbach, Germany).
(§3) 800.000 beads/200 μl were coated in 96-well plates in the presence of 600 ng biotin-anti-CD28 plus 200 ng relevant biotin-pMHC (high density beads). […] Half of the medium was then exchanged by fresh TCM supplemented with 80 U/ml IL-2 and incubation was continued for 3-4 days at 37° C. This stimulation cycle was performed for a total of three times.
(§4) In vitro priming of specific multimer+ CD8+ lymphocytes was detected by appropriate gating and by comparing to negative control stimulations.

CD8+ T cells [2] = assay: In vitro immunogenicity of HLA-A*0201 restricted TUMAPs: priming of CD8+ T cells with pMHC/anti-CD28 coated beads (aAPC), multimer staining; format: cell-based, human; details: HLA-A*0201 peptides, healthy donors, three stimulation cycles; for Wells positive/evaluable [%]: at least 48 wells evaluable; for Donors positive/evaluable [%]: at least four donors evaluable
Text: as §1, §2, §3, §4

[3] = described in other applications by immatics; vaccines IMA901, IMA910; cited from earlier work

Row | Substance | Wells positive/evaluable [%] (CD8+ T cells [1]) | Donors positive/evaluable [%] (CD8+ T cells [1]) | Wells positive/evaluable [%] (CD8+ T cells [2]) | Donors positive/evaluable [%] (CD8+ T cells [2]) | in vivo reactions [3]
1 | YYKNIGLGF (listed as Homo sapiens) [RPS11-001] | 3% | 17% |  |  | 
2 | IYNGKLFDLL (listed as Homo sapiens) [KIF2C-001] | 2% | 17% |  |  | 
3 | VYISSLALL (listed as Homo sapiens) [PSMD14-001] | 1% | 17% |  |  | 
4 | FYQPKIQQF (listed as Homo sapiens) [FANCI-001] | 1% | 17% |  |  | 
5 | KIQEILTQV (listed as Homo sapiens) [IGF2BP3-001] |  |  | 21% | 50% | 
6 | LYLENIDEF (listed as Homo sapiens) [POLD3-001] | 7% | 67% |  |  | 
7 | SYATLLHVL (listed as Homo sapiens) [GPR39-001] | 6% | 50% |  |  | 
8 | VYLLNSTTL (listed as Homo sapiens) [CLCN3-001] | 6% | 33% |  |  | 
9 | IYLEVIHNL (listed as Homo sapiens) [DNAJC10-001] | 15% | 50% |  |  | 
10 | SYLELVKSL (listed as Homo sapiens) [SDHC-001] | 3% | 33% |  |  | 
11 | QYASRFVQL (listed as Homo sapiens) [PLK4-001] | 5% | 60% |  |  | 
12 | IFSKIVSLF (listed as Homo sapiens) [EIF2S3-001] | 1% | 17% |  |  | 
13 | VYIEKNDKL (listed as Homo sapiens) [ERBB3-001] |  | 83% |  |  | 
14 | IYPDASLLI (listed as Homo sapiens) [CEA-010] | 3% | 40% |  |  | 
15 | DYAYLREHF (listed as Homo sapiens) [ZNF598-001] | 17% | 83% |  |  | 
16 | HYKPTPLYF (listed as Homo sapiens) [SMC4-001] | 10% | 73% |  |  | 
17 | NYLPFIMEL (listed as Homo sapiens) [UCHL5-001] | 12% | 75% |  |  | 
18 | QYIDKLNEL (listed as Homo sapiens) [CCDC88A-001] | 0% | 0% |  |  | 
19 | VYKVVGNLL (listed as Homo sapiens) [IQGAP3-001] | 24% | 100% |  |  | 

Row | Substance | Wells positive/evaluable [%] (CD8+ T cells [1]) | Donors positive/evaluable [%] (CD8+ T cells [1]) | Wells positive/evaluable [%] (CD8+ T cells [2]) | Donors positive/evaluable [%] (CD8+ T cells [2]) | in vivo reactions [3]
20 | VFDTAIAHLF (listed as Homo sapiens) [SIAH2-001] | 8% | 50% |  |  | 
21 | VYNPTPNSL (listed as Homo sapiens) [COL12A1-001] | 0% | 0% |  |  | 
22 | NYLLYVSNF (listed as Homo sapiens) [MST1R-001] | 13% | 50% |  |  | 
23 | YVDPVIT SI (YVDPVITSI; listed as Homo sapiens) [MET-001] |  |  | 42% | 67% | extremely good in vivo reactions
24 | LYPEVFEKF (listed as Homo sapiens) [ATAD2-003] | 0% | 0% |  |  | 
25 | YYYVGFAYL (listed as Homo sapiens) [EIF'3L-001] | 29% | 100% |  |  | 
26 | SYIIDPLNL (listed as Homo sapiens) [PROM1-001] | 26% | 83% |  |  | 
27 | VYTTSYQQI (listed as Homo sapiens) [NFYB-001] | 7% | 50% |  |  | 
28 | AYPTVKFYF (listed as Homo sapiens) [DNAJC10-002] | 3% | 33% |  |  | 
29 | LYQILQGIVF (listed as Homo sapiens) [CDC2-001] | 28% | 83% |  |  | 
30 | RYLPQCSYF (listed as Homo sapiens) [CCND2-001] | 10% | 17% |  |  | 
31 | RFLSGIINF (listed as Homo sapiens) [NUF2-002] | 6% | 50% |  |  | 
32 | RYLPKGFLNQF (listed as Homo sapiens) [PTK2-001] | 4% | 17% |  |  | 
33 | SYNVTSVLF (listed as Homo sapiens) [LCN2-001] | 1% | 17% |  |  | 
34 | FYISPVNKL (listed as Homo sapiens) [AVL9-001] | 31% | 100% |  |  | 
35 | VFIFKGNQF (listed as Homo sapiens) [MMP3-001] | 1% | 11% |  |  | 
36 | KYLTVKDYL (listed as Homo sapiens) [ATAD2-002] | 1% | 17% |  |  | 
37 | VYFSKSEQL (listed as Homo sapiens) [EPHA2-005] | 0% | 0% |  |  | 
38 | SYLQAANAL (listed as Homo sapiens) [COL6A3-001] | 0% | 0% |  |  | 

Row | Substance | Wells positive/evaluable [%] (CD8+ T cells [1]) | Donors positive/evaluable [%] (CD8+ T cells [1]) | Wells positive/evaluable [%] (CD8+ T cells [2]) | Donors positive/evaluable [%] (CD8+ T cells [2]) | in vivo reactions [3]
39 | NYEETFPHI (listed as Homo sapiens) [MUC6-001] | 22% | 83% |  |  | 
40 | KIFDEILVNA (listed as Homo sapiens) [TOP-001] |  |  | 10% | 40% | 
41 | VWSDVTPLTF (listed as Homo sapiens) [MMP11-001] | 11% | 33% |  |  | 
42 | AYLVYTDRL (listed as Homo sapiens) [PPAP2C-001] | 29% | 83% |  |  | 
43 | VYTTMAEHF (listed as Homo sapiens) [TSPAN1-002] | 1% | 17% |  |  | 
44 | RYLEGTSCI (listed as Homo sapiens) [EPPK1-001] | 1% | 17% |  |  | 
45 | YYNAAGFNKL (listed as Homo sapiens) [UQCRB-001] | 24% | 83% |  |  | 
46 | SYNPLWLRI (listed as Homo sapiens) [ASPM-002] | 32% | 67% |  |  | 
47 | SYQKVIELF (listed as Homo sapiens) [PBK-001] | 0% | 0% |  |  | 
48 | VYPNWAIGL (listed as Homo sapiens) [SLC6A6-001] | 1% | 17% |  |  | 
49 | IYAPKLQEF (listed as Homo sapiens) [CCNE2-001] | 0% | 0% |  |  | 
50 | RYLWATVTI (listed as Homo sapiens) [ASPM-001] | 3% | 17% |  |  | 
51 | KYNDTFWKEF (listed as Homo sapiens) [HSP90B1-001] | 7% | 50% |  |  | 
52 | AYAIIKEEL (listed as Homo sapiens) [ATAD2-001] | 3% | 33% |  |  | 
53 | TYGNLLDYL (listed as Homo sapiens) [ABL1-001] | 18% | 83% |  |  | 
54 | MYMTVSIIDRF (listed as Homo sapiens) [CCNB1-003] | 3% | 33% |  |  | 
55 | SYIDVLPEF (listed as Homo sapiens) [MET-006] | 21% | 67% |  |  | 
56 | VYGIRLEHF (listed as Homo sapiens) [NUF2-001] | 50% | 100% |  |  | 
57 | DYTIGFGKF (listed as Homo sapiens) [ITGB4-001] | 20% | 67% |  |  | 
